Results as given in patent US6545006B1, “Process for obtaining L-dihydroorotic acid and use thereof” (Aventis Pharma Deutschland GmbH, priority 1997, dated 2003).

Experiments:
DHO-DH = target: T1, DHO-DH (Mus musculus, UniProt O35435); assay: Intracellular DHO-concentrations in A20.2.J cells incubated with A77 1726; assay type: cell-based; settings: for DHO-Concentration (μg/ml ± SD) Experiment 1 (E10 B) / DHO-Concentration (μg/ml ± SD) Experiment 2 (E14): 5 μM A77 1726, 24 hours, n=3
T1 construct: endogenous in cells; host or cells: A20.2.J cells
Description: Cell Culture: A20.2.J cells were cultured in serum free medium (37° C., 5% CO2) in an expansion culture at logarithmic cell growth. […] The percentage of dead cells were <8% (3).
Prepared cells were resuspended in a defined medium volume and cell density. Depending on expected DHO content, between 1-50 million cells were removed, pelleted (5 min, 350×g) and supernatant discarded. Cell were lysed, by adding 500 μl 1.2 M HCIO4. The lysates were transferred into 2 ml Eppendorf safe-lock-caps, and the protein precipitated by 2 min high speed centrifugation. The acidified lysates were completely removed, transferred into glass vials and, after addition of 500 μl chloroform, thoroughly mixed by 2 min vortexing. Cellular lipids were extracted following 10 min cold centrifugation (1502×g; 10° C.). The purified supernatants were collected in 2 ml Eppendorf caps for storage at −20° C. until high pressure liquid chromatography (HPLC) determination.
The chromatographic separation was performed as described in example 1.The range of the conductive detector was set to 10 μS. The analysis was performed at room temperature. The mobile phase was composed of 100 mM NaOH (A) and water (B). With that system the following gradient was produced:
(* all values extrapolated to 10×10^6 cells) (n=2).
The data are given as μg/ml DHO±SD extrapolated to ten million cells (0-4 h=n=2, 7 h=n=4).

[1] = A77 1726 concentrations in serum from rats treated with leflunomide; assay type: in vivo, rat; settings: for A77 1726 concentrations in serum, Mean: leflunomide 10 mg/kg p.o. twice daily; for A77 1726 serum concentration: 3 hours after oral drug administration
Description: Animals: Male Wistar-Lewis rats (Mollegaard Breading Center Ltd. Ejby, DK) with a body weight of 160-200 g.
Adjuvant Arthritis: The disease was induced by injecting 0.1 ml Freund's adjuvant (6 mg Mycobacterium smegmatis suspended in 1 ml heavy, white paraffin oil (Merck, Darmstadt) into the root of Wistar-Lewis rat's tails. Pathological symptoms generally appear between 10 and 14 days after disease induction.
Drug Treatment: Drugs were suspended in 1% carboxymethylcellulose (COMC). […] (see table 12). At time point 0 h, 3 animals from both diseased and non-diseased groups were sacrificed to determine base-line levels. An additional 3 healthy and 3 diseased animals were treated with placebo (COMC alone) for 5 days.
Sampling: Three animals per group were sacrificed at each sampling time point. Serum and splenocytes taken at 3 h, 7 h, 27 h, 51 h, 75 h, and 99 h (see table 12). With the exception of the 7 h value, samples were taken three hours after the last drug application. The 7 h value was taken one hour after the second dosing. Samples from the placebo treated animals were taken at the 0 h (n=3) and 99 h (n=3) time points
Blood collected by heart puncture was stored for 30 min at 4° C. and then centrifuged for 10 min at 3000 rpm. Serum was separated and stored in Eppendorf-caps at −20° C. (3). Before HPLC analysis, the frozen serum was thawed and, in order to remove the proteins, 200 μl serum were added to a Microcon filter (model 10,code 42407, Amicon) and centrifuged for 30 min at 13 000 rpm.
The tubes were then mixed in a Vortex mixer and centrifuged at 2500 rpm (room temperature) for 10 minutes. For HPLC analysis, the supernatant (400 μl) was transferred to a vial and water (400 μl) added and mixed. The HPLC conditions were as follows: The hardware consisted of a TSP P2000 pump, a TSP AS1000 auto-sampler, a TSP SP4270 integrator, and a TSP UV100 UV-detector. Detection was at 292 nm wavelength. The mobile phase consisted of 650 ml methanol (CHROMASOLV), 2,42 g tetrabutylammoniumbromide, and 350 ml 0,05 M Ammoniumacetate. The flow rate was 0.5 ml/min A CHROMPACK Spherisorb ODS-2 10 cm column with a 1 cm reversed phase (R2) guard column was used. 100 μl was injected into the column and the running time was 7 min.

T1 sequence (O35435 whole entry): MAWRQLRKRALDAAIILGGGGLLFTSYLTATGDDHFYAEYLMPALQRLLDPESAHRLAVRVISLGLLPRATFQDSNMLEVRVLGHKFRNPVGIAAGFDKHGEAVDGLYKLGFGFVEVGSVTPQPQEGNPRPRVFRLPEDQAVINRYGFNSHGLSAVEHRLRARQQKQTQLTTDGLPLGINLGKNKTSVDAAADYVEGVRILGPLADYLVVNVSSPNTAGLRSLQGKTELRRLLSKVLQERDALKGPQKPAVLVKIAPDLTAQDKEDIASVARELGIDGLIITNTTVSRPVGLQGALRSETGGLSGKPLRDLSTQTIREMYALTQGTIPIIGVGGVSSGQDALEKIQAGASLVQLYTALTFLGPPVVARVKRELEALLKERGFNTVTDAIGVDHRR

- DHO-Concentration (μg/ml ± SD) Experiment 1 (E10 B) (DHO-DH; 1 ×10^6 cells extracted): 14.08 ± 2.40 µg/mL
- DHO-Concentration (μg/ml ± SD) Experiment 2 (E14) (DHO-DH; 1 ×10^6 cells extracted): 11.75 ± 0.23 µg/mL
- Concentration DHO (μg/ml) mean ± SD (DHO-DH; 1 × 10^6 cells/ml, 1 h, 5 μM A77 1726, extrapolated to 10×10^6 cells, n=2): 6.25 ± 0.42 µg/mL
- Concentration DHO (μg/ml) mean ± SD (DHO-DH; 1 × 10^6 cells/ml, 4 h, 5 μM A77 1726, extrapolated to 10×10^6 cells, n=2): 33.06 ± 2.26 µg/mL
- Concentration DHO (μg/ml) mean ± SD (DHO-DH; 1 × 10^6 cells/ml, 7 h, 5 μM A77 1726, extrapolated to 10×10^6 cells, n=2): 60.07 ± 0.01 µg/mL
- incubation time after which detectable amounts of DHO could be determined (DHO-DH; 1×10^6 cells/ml, independent of the drug concentration): 1 h
- incubation time with the greatest amount of DHO determined (DHO-DH; 1×10^6 cells/ml, saturation afterwards): 6 h
- DHO-Concentration (μg/ml ± SD) Experiment 1 (E10 B) (DHO-DH; 2 ×10^6 cells extracted): 19.51 ± 6.47 µg/mL
- DHO-Concentration (μg/ml ± SD) Experiment 2 (E14) (DHO-DH; 2 ×10^6 cells extracted): 28.27 ± 0.79 µg/mL
- Concentration DHO (μg/ml) mean ± SD (DHO-DH; 2 × 10^6 cells/ml, 1 h, 5 μM A77 1726, extrapolated to 10×10^6 cells, n=2): 5.47 ± 0.10 µg/mL
- Concentration DHO (μg/ml) mean ± SD (DHO-DH; 2 × 10^6 cells/ml, 4 h, 5 μM A77 1726, extrapolated to 10×10^6 cells, n=2): 26.36 ± 0.42 µg/mL
- Concentration DHO (μg/ml) mean ± SD (DHO-DH; 2 × 10^6 cells/ml, 7 h, 5 μM A77 1726, extrapolated to 10×10^6 cells, n=2): 42.31 ± 1.07 µg/mL
- Concentration DHO (μg/ml) mean ± SD (DHO-DH; 3 × 10^6 cells/ml, 1 h, 5 μM A77 1726, extrapolated to 10×10^6 cells, n=2): 5.63 ± 0.19 µg/mL
- Concentration DHO (μg/ml) mean ± SD (DHO-DH; 3 × 10^6 cells/ml, 4 h, 5 μM A77 1726, extrapolated to 10×10^6 cells, n=2): 19.39 ± 1.87 µg/mL
- Concentration DHO (μg/ml) mean ± SD (DHO-DH; 3 × 10^6 cells/ml, 7 h, 5 μM A77 1726, extrapolated to 10×10^6 cells, n=2): 28.79 ± 0.34 µg/mL
- DHO-Concentration (μg/ml ± SD) Experiment 1 (E10 B) (DHO-DH; 4 ×10^6 cells extracted): 53.58 ± 3.50 µg/mL
- DHO-Concentration (μg/ml ± SD) Experiment 2 (E14) (DHO-DH; 4 ×10^6 cells extracted): 57.20 ± 2.76 µg/mL
- DHO-Concentration (μg/ml ± SD) Experiment 1 (E10 B) (DHO-DH; 6 ×10^6 cells extracted): 73.01 ± 1.49 µg/mL
- DHO-Concentration (μg/ml ± SD) Experiment 2 (E14) (DHO-DH; 6 ×10^6 cells extracted): 85.38 ± 2.33 µg/mL
- DHO-Concentration (μg/ml ± SD) Experiment 1 (E10 B) (DHO-DH; 8 ×10^6 cells extracted): 99.89 ± 5.96 µg/mL
- DHO-Concentration (μg/ml ± SD) Experiment 2 (E14) (DHO-DH; 8 ×10^6 cells extracted): 107.02 ± 3.47 µg/mL
- DHO-Concentration (μg/ml ± SD) Experiment 1 (E10 B) (DHO-DH; 10 ×10^6 cells extracted): 113.37 ± 4.24 µg/mL
- DHO-Concentration (μg/ml ± SD) Experiment 2 (E14) (DHO-DH; 10 ×10^6 cells extracted): 128.73 ± 1.95 µg/mL
- Concentration DHO (μg/ml) mean ± SD (DHO-DH; A77 1726 5 μM, 0 h, one million cells/ml, extrapolated to ten million cells): 2.73 ± 0.10 µg/mL
- Concentration DHO (μg/ml) mean ± SD (DHO-DH; A77 1726 5 μM, 1 h, one million cells/ml, extrapolated to ten million cells): 9.20 ± 0.09 µg/mL
- Concentration DHO (μg/ml) mean ± SD (DHO-DH; A77 1726 5 μM, 2 h, one million cells/ml, extrapolated to ten million cells): 24.03 ± 1.15 µg/mL
- Concentration DHO (μg/ml) mean ± SD (DHO-DH; A77 1726 5 μM, 4 h, one million cells/ml, extrapolated to ten million cells): 59.48 ± 0.72 µg/mL
- Concentration DHO (μg/ml) mean ± SD (DHO-DH; A77 1726 5 μM, 7 h, one million cells/ml, extrapolated to ten million cells): 87.54 ± 1.58 µg/mL
- Concentration DHO (μg/ml) mean ± SD (DHO-DH; A77 1726 10 μM, 0 h, one million cells/ml, extrapolated to ten million cells): 2.73 ± 0.10 µg/mL
- Concentration DHO (μg/ml) mean ± SD (DHO-DH; A77 1726 10 μM, 1 h, one million cells/ml, extrapolated to ten million cells): 8.5 ± 0.39 µg/mL
- Concentration DHO (μg/ml) mean ± SD (DHO-DH; A77 1726 10 μM, 2 h, one million cells/ml, extrapolated to ten million cells): 20.74 ± 1.43 µg/mL
- Concentration DHO (μg/ml) mean ± SD (DHO-DH; A77 1726 10 μM, 4 h, one million cells/ml, extrapolated to ten million cells): 58.65 ± 2.06 µg/mL
- Concentration DHO (μg/ml) mean ± SD (DHO-DH; A77 1726 10 μM, 7 h, one million cells/ml, extrapolated to ten million cells): 82.65 ± 4.50 µg/mL
- Concentration DHO (μg/ml) mean ± SD (DHO-DH; A77 1726 25 μM, 0 h, one million cells/ml, extrapolated to ten million cells): 2.73 ± 0.08 µg/mL
- Concentration DHO (μg/ml) mean ± SD (DHO-DH; A77 1726 25 μM, 1 h, one million cells/ml, extrapolated to ten million cells): 15.05 ± 0.26 µg/mL
- Concentration DHO (μg/ml) mean ± SD (DHO-DH; A77 1726 25 μM, 2 h, one million cells/ml, extrapolated to ten million cells): 26.06 ± 0.20 µg/mL
- Concentration DHO (μg/ml) mean ± SD (DHO-DH; A77 1726 25 μM, 4 h, one million cells/ml, extrapolated to ten million cells): 50.21 ± 1.54 µg/mL
- Concentration DHO (μg/ml) mean ± SD (DHO-DH; A77 1726 25 μM, 7 h, one million cells/ml, extrapolated to ten million cells): 114.89 ± 3.61 µg/mL
- accumulation of L-DHO in A20.2.J tumor cells (DHO-DH; incubation with A77 1726): rapid accumulation of L-DHO
- A77 1726 concentrations in serum, Mean ([1]; Adjuvant Diseased Rats, 3 h): 26.33 µg/mL
- A77 1726 concentrations in serum, Mean ([1]; Adjuvant Diseased Rats, 7 h): 42.3 µg/mL
- A77 1726 concentrations in serum, Mean ([1]; Adjuvant Diseased Rats, 27 h): 19.7 µg/mL
- A77 1726 concentrations in serum, Mean ([1]; Adjuvant Diseased Rats, 51 h): 9.2 µg/mL
- A77 1726 concentrations in serum, Mean ([1]; Adjuvant Diseased Rats, 75 h): 9.9 µg/mL
- A77 1726 concentrations in serum, Mean ([1]; Adjuvant Diseased Rats, 99 h): 12.2 µg/mL
- A77 1726 concentrations in serum, Mean ([1]; Non-Diseased Rats, 3 h): 30.7 µg/mL
- A77 1726 concentrations in serum, Mean ([1]; Non-Diseased Rats, 7 h): 47.9 µg/mL
- A77 1726 concentrations in serum, Mean ([1]; Non-Diseased Rats, 27 h): 9.6 µg/mL
- A77 1726 concentrations in serum, Mean ([1]; Non-Diseased Rats, 51 h): 7400 µg/mL
- A77 1726 concentrations in serum, Mean ([1]; Non-Diseased Rats, 99 h): 12.7 µg/mL
- A77 1726 serum concentration ([1]; adjuvant diseased rats): about 26 μg/ml
- time to reach the 7 to 12 μg/ml A77 1726 serum concentrations ([1]; diseased animals): 51 h
- time to reach the 7 to 12 μg/ml A77 1726 serum concentrations ([1]; non-diseased rats): 27 h
- A77 1726 serum concentration ([1]; non-diseased rats): ~31 µg/mL
- time of peak A77 1726 serum concentration ([1]; one hour after the second dosing): 7 h
Structure (SMILES): CC(O)=C(C#N)C(=O)Nc1ccc(C(F)(F)F)cc1 [A77 1726, N-(4-trifluoromethyl)-2-cyano-3-hydroxy-crotonamide]
